Reference: ChEMBL document CHEMBL5291721, “A preclinical secondary pharmacology resource illuminates target-adverse drug reaction associations of marketed drugs” (Nat Commun, 2023)

What was measured:
Adenosine receptor A3 = biological target: T1, Adenosine receptor A3 (Homo sapiens, UniProt P0DMS8)
T1 sequence (P0DMS8 whole entry): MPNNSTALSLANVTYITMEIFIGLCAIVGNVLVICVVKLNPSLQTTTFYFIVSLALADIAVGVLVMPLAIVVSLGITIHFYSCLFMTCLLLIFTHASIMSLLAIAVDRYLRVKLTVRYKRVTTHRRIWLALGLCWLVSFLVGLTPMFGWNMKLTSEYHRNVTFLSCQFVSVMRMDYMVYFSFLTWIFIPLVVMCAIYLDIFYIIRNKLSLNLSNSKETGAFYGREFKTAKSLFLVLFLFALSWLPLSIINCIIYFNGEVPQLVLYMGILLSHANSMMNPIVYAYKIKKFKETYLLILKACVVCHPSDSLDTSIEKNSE

D(1A) dopamine receptor [1] = biological target: T2, D(1A) dopamine receptor (Homo sapiens, UniProt P21728); assay type: functional, cell-based
T2 sequence (P21728 whole entry): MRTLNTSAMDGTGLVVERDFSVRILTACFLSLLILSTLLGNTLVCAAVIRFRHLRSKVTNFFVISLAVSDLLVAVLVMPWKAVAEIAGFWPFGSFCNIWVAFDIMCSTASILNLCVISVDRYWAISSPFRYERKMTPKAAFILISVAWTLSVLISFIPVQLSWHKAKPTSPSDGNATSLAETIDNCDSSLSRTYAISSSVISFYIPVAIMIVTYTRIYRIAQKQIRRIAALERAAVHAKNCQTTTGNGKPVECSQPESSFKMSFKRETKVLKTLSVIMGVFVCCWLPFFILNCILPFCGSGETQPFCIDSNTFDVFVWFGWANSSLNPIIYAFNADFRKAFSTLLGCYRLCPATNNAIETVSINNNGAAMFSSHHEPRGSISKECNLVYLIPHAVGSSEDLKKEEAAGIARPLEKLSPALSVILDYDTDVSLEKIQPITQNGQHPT

Histamine H2 receptor = Histamine H2 receptor (Homo sapiens, UniProt P25021); assay type: functional, cell-based
Sequence of Histamine H2 receptor (P25021 whole entry): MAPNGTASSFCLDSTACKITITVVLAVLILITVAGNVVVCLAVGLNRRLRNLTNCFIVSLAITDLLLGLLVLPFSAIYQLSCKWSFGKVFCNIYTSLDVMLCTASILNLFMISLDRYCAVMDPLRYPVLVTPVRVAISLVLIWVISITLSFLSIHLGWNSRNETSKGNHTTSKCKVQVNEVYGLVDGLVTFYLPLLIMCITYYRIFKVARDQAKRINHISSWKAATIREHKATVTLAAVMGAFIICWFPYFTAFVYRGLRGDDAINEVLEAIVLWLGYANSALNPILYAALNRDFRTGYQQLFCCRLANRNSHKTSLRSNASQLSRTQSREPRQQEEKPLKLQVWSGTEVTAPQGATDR

[2] = biological target: 5-hydroxytryptamine receptor 2B (Homo sapiens, UniProt P41595); assay type: functional, cell-based
Sequence of 5-hydroxytryptamine receptor 2B (P41595 whole entry): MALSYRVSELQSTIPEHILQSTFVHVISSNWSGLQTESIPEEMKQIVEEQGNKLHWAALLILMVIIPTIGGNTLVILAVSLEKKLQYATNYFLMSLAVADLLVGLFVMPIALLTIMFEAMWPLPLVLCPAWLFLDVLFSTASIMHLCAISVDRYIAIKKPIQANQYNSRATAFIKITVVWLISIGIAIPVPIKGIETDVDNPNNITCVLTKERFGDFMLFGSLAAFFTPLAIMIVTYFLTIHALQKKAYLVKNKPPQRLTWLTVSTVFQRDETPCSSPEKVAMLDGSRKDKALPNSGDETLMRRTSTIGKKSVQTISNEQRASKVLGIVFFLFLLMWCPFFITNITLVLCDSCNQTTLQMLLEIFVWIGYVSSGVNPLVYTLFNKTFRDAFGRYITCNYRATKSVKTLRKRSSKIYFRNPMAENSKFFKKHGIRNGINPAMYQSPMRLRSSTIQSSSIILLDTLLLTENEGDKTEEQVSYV

Melanocortin receptor 4 = Melanocortin receptor 4 (Homo sapiens, UniProt P32245)
Sequence of Melanocortin receptor 4 (P32245 whole entry): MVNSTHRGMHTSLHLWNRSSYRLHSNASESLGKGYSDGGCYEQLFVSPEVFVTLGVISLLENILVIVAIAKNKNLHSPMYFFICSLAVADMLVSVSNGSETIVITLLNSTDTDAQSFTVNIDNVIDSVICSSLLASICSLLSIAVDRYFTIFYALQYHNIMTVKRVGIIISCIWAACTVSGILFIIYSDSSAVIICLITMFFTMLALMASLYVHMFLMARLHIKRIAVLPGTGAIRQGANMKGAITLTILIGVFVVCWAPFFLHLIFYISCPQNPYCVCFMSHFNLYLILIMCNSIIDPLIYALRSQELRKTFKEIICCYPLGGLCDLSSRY

[3] = biological target: T3, Neuropeptide Y receptor type 1 (Homo sapiens, UniProt P25929)
T3 sequence (P25929 whole entry): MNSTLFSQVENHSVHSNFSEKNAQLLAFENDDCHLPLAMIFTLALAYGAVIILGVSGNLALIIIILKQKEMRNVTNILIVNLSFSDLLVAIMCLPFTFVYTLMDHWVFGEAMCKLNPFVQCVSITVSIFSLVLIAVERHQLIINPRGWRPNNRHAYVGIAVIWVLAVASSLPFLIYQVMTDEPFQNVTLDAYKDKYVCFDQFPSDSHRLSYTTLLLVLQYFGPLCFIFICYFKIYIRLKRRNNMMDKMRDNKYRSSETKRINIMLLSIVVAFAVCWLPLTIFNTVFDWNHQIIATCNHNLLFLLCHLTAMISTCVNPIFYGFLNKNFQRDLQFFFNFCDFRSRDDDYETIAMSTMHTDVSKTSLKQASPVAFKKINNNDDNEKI

Progesterone receptor [4] = biological target: T4, Progesterone receptor (Homo sapiens, UniProt P06401); assay type: functional
T4 sequence (P06401 whole entry): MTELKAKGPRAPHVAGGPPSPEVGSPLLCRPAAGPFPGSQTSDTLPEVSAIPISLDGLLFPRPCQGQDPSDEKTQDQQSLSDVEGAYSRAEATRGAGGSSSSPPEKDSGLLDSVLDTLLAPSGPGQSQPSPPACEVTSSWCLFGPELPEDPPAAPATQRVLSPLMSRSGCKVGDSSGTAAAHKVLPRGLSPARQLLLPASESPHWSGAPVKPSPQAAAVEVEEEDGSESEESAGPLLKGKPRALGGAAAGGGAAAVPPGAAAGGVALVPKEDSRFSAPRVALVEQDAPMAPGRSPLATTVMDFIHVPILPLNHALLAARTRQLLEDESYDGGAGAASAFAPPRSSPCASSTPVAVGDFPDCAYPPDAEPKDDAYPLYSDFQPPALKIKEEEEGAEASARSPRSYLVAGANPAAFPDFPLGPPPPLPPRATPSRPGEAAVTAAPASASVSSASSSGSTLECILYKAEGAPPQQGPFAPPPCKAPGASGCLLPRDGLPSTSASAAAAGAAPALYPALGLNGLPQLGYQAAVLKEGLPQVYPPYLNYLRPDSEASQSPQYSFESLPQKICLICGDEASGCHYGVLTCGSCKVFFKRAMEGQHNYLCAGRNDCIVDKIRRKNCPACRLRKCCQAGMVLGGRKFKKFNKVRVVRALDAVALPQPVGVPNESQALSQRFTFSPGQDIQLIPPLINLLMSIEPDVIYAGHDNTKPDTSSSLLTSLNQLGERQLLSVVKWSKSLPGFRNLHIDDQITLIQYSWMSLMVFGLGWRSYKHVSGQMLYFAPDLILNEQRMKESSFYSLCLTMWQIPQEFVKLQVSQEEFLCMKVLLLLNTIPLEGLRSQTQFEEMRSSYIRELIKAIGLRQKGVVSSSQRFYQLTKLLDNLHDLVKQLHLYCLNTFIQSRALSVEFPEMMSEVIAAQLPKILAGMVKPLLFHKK

[5] = biological target: T5, Equilibrative nucleoside transporter 1 (Homo sapiens, UniProt Q99808)
T5 sequence (Q99808 whole entry): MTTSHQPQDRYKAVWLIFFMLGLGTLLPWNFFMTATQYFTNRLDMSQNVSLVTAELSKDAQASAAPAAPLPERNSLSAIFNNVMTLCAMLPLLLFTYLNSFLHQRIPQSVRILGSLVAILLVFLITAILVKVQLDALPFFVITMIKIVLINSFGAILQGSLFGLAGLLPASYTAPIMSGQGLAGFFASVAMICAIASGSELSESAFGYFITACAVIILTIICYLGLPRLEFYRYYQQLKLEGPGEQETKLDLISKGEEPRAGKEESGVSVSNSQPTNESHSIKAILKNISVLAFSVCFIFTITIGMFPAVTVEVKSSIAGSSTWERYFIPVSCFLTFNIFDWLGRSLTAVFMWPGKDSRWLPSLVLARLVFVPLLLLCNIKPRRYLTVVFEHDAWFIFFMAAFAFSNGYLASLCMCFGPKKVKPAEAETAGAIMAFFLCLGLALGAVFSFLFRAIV

[6] = biological target: T6, Alpha-1A adrenergic receptor (Homo sapiens, UniProt P35348); assay type: functional, cell-based
T6 sequence (P35348 whole entry): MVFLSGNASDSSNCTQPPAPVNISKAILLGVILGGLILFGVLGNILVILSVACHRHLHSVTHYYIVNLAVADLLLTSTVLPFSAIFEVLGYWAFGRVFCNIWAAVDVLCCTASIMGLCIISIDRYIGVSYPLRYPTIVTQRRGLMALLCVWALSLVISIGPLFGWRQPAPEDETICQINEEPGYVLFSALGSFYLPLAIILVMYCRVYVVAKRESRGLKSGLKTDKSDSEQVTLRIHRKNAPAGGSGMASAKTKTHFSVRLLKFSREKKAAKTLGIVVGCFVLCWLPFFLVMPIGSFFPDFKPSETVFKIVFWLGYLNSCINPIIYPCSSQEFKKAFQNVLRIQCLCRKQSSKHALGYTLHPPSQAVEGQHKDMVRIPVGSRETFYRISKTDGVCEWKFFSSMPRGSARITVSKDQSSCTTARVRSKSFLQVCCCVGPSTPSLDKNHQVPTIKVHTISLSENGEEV

Progesterone receptor [7] = biological target: T4, Progesterone receptor
D(1A) dopamine receptor [8] = biological target: T2, D(1A) dopamine receptor
Note: assay procedure not described here.

| Structure (SMILES) | AC50 (Adenosine receptor A3) [µM] | AC50 (D(1A) dopamine receptor [1]) [µM] | AC50 (Histamine H2 receptor) [µM] | AC50 [2] [µM] | AC50 (Melanocortin receptor 4) [µM] | AC50 [3] [µM] | AC50 (Progesterone receptor [4]) [µM] | AC50 [5] [µM] | AC50 [6] [µM] | AC50 (Progesterone receptor [7]) [µM] | AC50 (D(1A) dopamine receptor [8]) [µM] |
| --- | --- | --- | --- | --- | --- | --- | --- | --- | --- | --- | --- |
| C[N+]1(C)CCC(=C(c2ccccc2)c2ccccc2)CC1 | > 30 | > 10 | > 10 | 29 | > 30 | > 30 | > 10 | > 10 | – | – | – |
| C[N+](C)(C)CCOP(=O)([O-])OC[C@H](O)CO | > 30 | > 30 | > 30 | > 30 | – | > 30 | > 30 | > 30 | > 30 | – | – |
| CN(C)C/C=C/C(=O)Nc1cc2c(Nc3ccc(F)c(Cl)c3)ncnc2cc1O[C@H]1CCOC1 [AFATINIB] | > 30 | > 30 | > 30 | > 30 | – | > 30 | > 30 | > 30 | > 30 | – | – |
| CCC1(c2ccc(N)cc2)CCC(=O)NC1=O (centres undefined) [AMINOGLUTETHIMIDE] | > 30 | > 30 | > 30 | – | – | > 30 | > 30 | > 30 | > 30 | – | – |
| CC(=O)OC[C@H]1O[C@@H](n2ncc(=O)[nH]c2=O)[C@H](OC(C)=O)[C@@H]1OC(C)=O [AZARIBINE] | – | – | – | – | – | – | – | – | – | > 30 | – |
| CC1=C(C(=O)OC(C)C)C(c2cccc([N+](=O)[O-])c2)C(C(=O)OC2CN(C(c3ccccc3)c3ccccc3)C2)=C(N)N1 (centres undefined) [AZELNIDIPINE] | 2.2 | > 30 | > 30 | > 30 | – | > 30 | > 30 | > 30 | > 30 | – | – |
| CC(Cc1cccc(C(F)(F)F)c1)NCCOC(=O)c1ccccc1 (centres undefined) [BENFLUOREX] | 28 | > 30 | > 30 | 0.495 | – | > 30 | > 30 | – | > 30 | – | – |
| NC[C@H]1CC[C@H](C(=O)Oc2ccc(CCC(=O)O)cc2)CC1 [CETRAXATE] | – | > 30 | > 30 | > 30 | – | – | – | – | > 30 | > 30 | > 30 |
| C=C1CC[C@H](O)C/C1=C/C=C1\CCC[C@]2(C)[C@@H]([C@H](C)CCCC(C)C)CC[C@@H]12 [CHOLECALCIFEROL] | – | – | – | – | – | – | – | – | – | – | > 30 |
| C[C@H](CCC(=O)O)[C@H]1CC[C@H]2[C@@H]3[C@H](O)C[C@@H]4C[C@H](O)CC[C@]4(C)[C@H]3C[C@H](O)[C@]12C [CHOLIC ACID] | – | – | – | – | – | – | – | – | – | > 30 | > 30 |
| CN[C@]1(c2ccccc2Cl)CCCCC1=O [ESKETAMINE] | > 30 | > 30 | > 30 | > 30 | – | > 30 | > 30 | > 30 | > 30 | – | – |
| CC(O)(P(=O)(O)O)P(=O)(O)O [ETIDRONIC ACID] | – | – | – | – | – | – | – | – | – | – | > 30 |
| CNCCc1ccc(OC(=O)C(C)C)c(OC(=O)C(C)C)c1 [IBOPAMINE] | > 30 | 0.0442 | > 30 | > 30 | – | > 30 | > 30 | > 30 | 0.131 | – | – |
| CCOC(=O)C1=C(C)NC(C)=C(C(=O)OCC)C1c1ccccc1/C=C/C(=O)OC(C)(C)C [LACIDIPINE] | 15 | > 30 | > 30 | > 30 | – | > 30 | > 30 | > 30 | > 30 | – | – |
| COC(=O)C1=C(C)NC(C)=C(C(=O)OCCN2CCN(C(c3ccccc3)c3ccccc3)CC2)C1c1cccc([N+](=O)[O-])c1 (centres undefined) [MANIDIPINE 6300] | 3.8 | > 30 | > 30 | > 30 | – | > 30 | > 30 | > 30 | > 30 | – | – |
| OC[C@H]1O[C@@H](n2cnc3c2NC=NC[C@H]3O)C[C@@H]1O [PENTOSTATIN] | 3.6 | > 30 | > 30 | > 30 | – | > 30 | > 30 | > 30 | > 30 | – | – |
| NNCCc1ccccc1 [PHENELZINE] | – | – | – | – | – | – | – | – | – | > 30 | > 30 |
| Cc1cccc(C)c1NC(=O)CC12CCCN1CCC2 [PILSICAINIDE] | > 30 | > 30 | > 30 | > 30 | – | > 30 | > 30 | > 30 | > 30 | – | – |
| CC(C)c1cccc(C(C)C)c1O [PROPOFOL] | > 30 | > 30 | – | > 30 | – | – | > 30 | > 30 | > 30 | – | – |
| CN[C@@H](C)[C@@H](O)c1ccccc1 [PSEUDOEPHEDRINE] | > 30 | > 10 | > 10 | > 10 | > 30 | > 30 | – | > 30 | – | – | – |
| CCCN1CC(NS(=O)(=O)N(CC)CC)CC2Cc3c(O)cccc3CC21 (centres undefined) [QUINAGOLIDE] | > 30 | 0.15 | > 30 | – | – | > 30 | > 30 | – | 0.45 | – | – |
| O=C1OC(OC(=O)c2cccnc2Nc2cccc(C(F)(F)F)c2)c2ccccc21 (centres undefined) [TALNIFLUMATE] | > 30 | > 30 | > 30 | > 30 | – | > 30 | > 30 | > 30 | > 30 | – | – |
| Cc1ccc(C(=O)C(C)CN2CCCCC2)cc1 (centres undefined) [TOLPERISONE] | – | – | – | – | – | – | – | – | – | > 30 | > 30 |
| CCOC(=O)c1c(CSc2ccccc2)n(C)c2cc(Br)c(O)c(CN(C)C)c12 [UMIFENOVIR] | > 30 | > 30 | > 30 | > 30 | – | > 30 | > 30 | > 30 | > 30 | – | – |
